From patent US20250352448A1, “COMPOSITION FOR IMPROVING SKIN CONDITIONS” (AJINOMOTO CO., INC., priority 2022, published 2025)

Tested on: caspase-14
Assay: caspase-14 production in amino acid-depleted epidermal keratinocytes (ELISA)
Assay type: cell-based
Conditions: human skin-simulating medium 2, cultured 4 days
Text: Culture media ([…] medium) used for cell culture contain amino acids necessary for cells to survive and grow. […] human skin-simulating medium 2: The essential amino acids in D-MEM (Life Technologies 21068-028) were changed to the concentrations shown in Table 10, human skin-simulating medium 2. […] The next day, the medium was replaced with the medium of evaluation condition (5)-(7). • Evaluation condition (5): Human skin-simulating medium 2 (hereinafter the sample evaluated under evaluation condition (5) is referred to as “Control 3”). • Evaluation condition (6): Medium obtained by adding His (final concentration 0.2 mM), Leu (final concentration 0.8 mM), Val (final concentration 0.8 mM) to human skin-simulating medium 2 (hereinafter the sample evaluated under evaluation condition (6) is referred to as “Example 3”). • Evaluation condition (7): Medium obtained by adding His (final concentration 0.2 mM) to human skin-simulating medium 2 (hereinafter the sample evaluated under evaluation condition (7) is referred to as “Example 4”). […] The protein extract of the above-mentioned 4 was diluted with water, and the protein was quantified using Micro BCA Protein Assay Kit (Thermo Fisher Scientific 23235). • 6. The amount of caspase-14 determined in the above-mentioned 4 was normalized by the amount of protein determined in the above-mentioned 5. • 7. […]

N[C@@H](Cc1c[nH]cn1)C(=O)O [His, histidine]
amount of caspase-14 (normalized by protein amount, Control 3 as 100%) (Experimental Example 2-3, FIG. 3, final His 0.2, Leu 0.8, Val 0.8 mM or His 0.2 mM alone): remarkably increased
amount of caspase-14 (normalized by protein amount, Control 7 as 100%) (Experimental Example 3-3-1, FIG. 6A, final His 0.2, Leu 0.8, Val 0.8 mM, Val 0.8 mM alone or His 0.2 mM alone): remarkably increased
